Results from US8536202B2, “Triazole-substituted anthranilamides as pesticides” (Bayer Cropscience AG, priority 2010, dated 2013).
Read-outs that look alike come from different tables or passages of the source.

Legend:
[1] = system: caterpillars of the armyworm (Spodoptera frugiperda); assay: Spodoptera frugiperda test (SPODFR spray treatment); assay type: in vivo; conditions: 168 h, read-out: activity in %
Experimental: (§1) Solvents: 78.0 parts by weight of acetone • • 1.5 parts by weight of dimethylformamide
(§2) Emulsifier: 0.5 part by weight of alkylaryl polyglycol ether
(§3) An appropriate preparation of active compound is prepared by mixing 1 part by weight of active compound with the stated amounts of solvent and emulsifier and diluting the concentrate with emulsifier-containing water to the desired concentration.
Leaf discs of maize (Zea mays) are sprayed with a preparation of active compound at the desired concentration and, after drying, are populated with caterpillars of the armyworm (Spodoptera frugiperda).
After 7 days, the activity in % is ascertained. Here, 100% means that all of the caterpillars have been killed; 0% means that no caterpillar has been killed.

[2] = log P determination by HPLC on reversed-phase columns (EEC Directive 79/831 Annex V.A8); assay type: physicochemical; conditions: pH 2.7
Experimental: Determination by LC-MS in the acidic range takes place at a pH of 2.7 using 0.1% aqueous formic acid and acetonitrile (containing 0.1% formic acid) as eluents, with a linear gradient from 10% acetonitrile to 95% acetonitrile.
Calibration was carried out using unbranched alkan-2-ones (having 3 to 16 carbon atoms) with known log P values (the log P values are determined from the retention times by linear interpolation between two successive alkanones).

[3] = system: larvae of the mustard beetle (Phaedon cochleariae); assay: Phaedon test (PHAECO spray treatment); assay type: in vivo; conditions: 168 h, 100 g/ha, after 7 days, read-out: activity in %
Experimental: as §1, §2, §3
After 7 days, the activity in % is ascertained. Here, 100% means that all of the beetle larvae have been killed; 0% means that no beetle larvae have been killed.

[4] = reversed-phase C18 HPLC column, HPLC on reversed-phase columns (C 18), EEC Directive 79/831 Annex V.A8, read-out: logP
[5] = HPLC on reversed-phase columns (C 18), EEC Directive 79/831 Annex V.A8, read-out: logP

| Structure (SMILES) | pest or weed control at 100 g/ha ([1]; 100 g/ha, after 7 days) [%] | chromatographic logP [2] | other results |
| --- | --- | --- | --- |
| Cc1cc(C#N)cc(C(=O)NC(C)(C)C)c1NC(=O)c1cc(Cn2ncc(C(F)(F)F)n2)nn1-c1ncccc1Br [Example 10] | 100 |  | chromatographic logP [2, 4]: 3.04 |
| CNC(=O)c1cc(Cl)cc(C)c1NC(=O)c1cc(Cn2cc(C3CC3)nn2)nn1-c1ncccc1Cl [Example 13] |  | 2.14 |  |
| CNC(=O)c1cc(Cl)cc(C)c1NC(=O)c1cc(Cn2cc(C(C)C)nn2)nn1-c1ncccc1Cl [Example 14] |  | 2.29 | pest or weed control at 100 g/ha [3]: 83% |
| CNC(=O)c1cc(Cl)cc(C)c1NC(=O)c1cc(Cn2cc(C(C)(C)C)nn2)nn1-c1ncccc1Cl [Example 15] |  | 2.53 |  |
| CNC(=O)c1cc(Cl)cc(C)c1NC(=O)c1cc(Cn2ncc(C(C)C)n2)nn1-c1ncccc1Cl [Example 22] | 100 | 2.85 |  |
| CNC(=O)c1cc(Cl)cc(C)c1NC(=O)c1cc(Cn2ncc(C(C)(C)C)n2)nn1-c1ncccc1Cl [Example 23] | 83 | 3.2 |  |
| CNC(=O)c1cc(C#N)cc(C)c1NC(=O)c1cc(Cn2cc(C3CC3)nn2)nn1-c1ncccc1Cl [Example 29] |  | 1.86 | pest or weed control at 100 g/ha [3]: 100% |
| CNC(=O)c1cc(C#N)cc(C)c1NC(=O)c1cc(Cn2cc(C(C)C)nn2)nn1-c1ncccc1Cl [Example 30] |  | 2.03 | pest or weed control at 100 g/ha [3]: 100% |
| CNC(=O)c1cc(C#N)cc(C)c1NC(=O)c1cc(Cn2cc(C(C)(C)C)nn2)nn1-c1ncccc1Cl [Example 31] |  | 2.25 | pest or weed control at 100 g/ha [3]: 100% |
| CNC(=O)c1cc(C#N)cc(C)c1NC(=O)c1cc(Cn2cc(-c3ccc(F)cc3)nn2)nn1-c1ncccc1Cl [Example 32] | 100 | 2.41 |  |
| CNC(=O)c1cc(C#N)cc(C)c1NC(=O)c1cc(Cn2cc(-c3ccccc3Cl)nn2)nn1-c1ncccc1Cl [Example 35] | 100 | 2.63 |  |
| CNC(=O)c1cc(C#N)cc(C)c1NC(=O)c1cc(Cn2ncc(C3CC3)n2)nn1-c1ncccc1Cl [Example 37] |  | 2.28 | pest or weed control at 100 g/ha [3]: 100% |
| Cc1cc(Cl)cc(C(=O)NC(C)(C)C)c1NC(=O)c1cc(Cn2ncc(C(C)C)n2)nn1-c1ncccc1Cl [Example 47] |  | 3.86 |  |
| Cc1cc(Cl)cc(C(=O)NC(C)(C)C)c1NC(=O)c1cc(Cn2ncc(C(C)(C)C)n2)nn1-c1ncccc1Cl [Example 48] |  | 4.25 |  |
| Cc1cc(Cl)cc(C(=O)NC(C)(C)C)c1NC(=O)c1cc(Cn2ncc(-c3ccc(Cl)cc3)n2)nn1-c1ncccc1Cl [Example 49] |  | 4.58 |  |
| Cc1cc(C#N)cc(C(=O)NC(C)(C)C)c1NC(=O)c1cc(Cn2cc(C(C)C)nn2)nn1-c1ncccc1Cl [Example 51] |  | 2.74 |  |
| Cc1cc(C#N)cc(C(=O)NC(C)(C)C)c1NC(=O)c1cc(Cn2cc(C(C)(C)C)nn2)nn1-c1ncccc1Cl [Example 52] |  | 3.02 |  |
| Cc1cc(C#N)cc(C(=O)NC(C)(C)C)c1NC(=O)c1cc(Cn2cc(-c3ccccc3Cl)nn2)nn1-c1ncccc1Cl [Example 56] | 83 | 3.45 |  |
| Cc1cc(C#N)cc(C(=O)NC(C)(C)C)c1NC(=O)c1cc(Cn2ncc(C3CC3)n2)nn1-c1ncccc1Cl [Example 58] | 100 | 3.12 |  |
| Cc1cc(C#N)cc(C(=O)NC(C)(C)C)c1NC(=O)c1cc(Cn2ncc(C(C)C)n2)nn1-c1ncccc1Cl [Example 59] |  | 3.38 |  |
| Cc1cc(C#N)cc(C(=O)NC(C)(C)C)c1NC(=O)c1cc(Cn2ncc(C(C)(C)C)n2)nn1-c1ncccc1Cl [Example 60] |  | 3.74 |  |
| CNC(=O)c1cc(Cl)cc(C)c1NC(=O)c1cc(Cn2nnc3ccccc32)nn1-c1ncccc1Cl [Example 66] | 100 | 2.38 |  |
| CNC(=O)c1cc(Cl)cc(C)c1NC(=O)c1cc(Cn2nc3ccccc3n2)nn1-c1ncccc1Cl [Example 67] | 100 | 2.75 |  |
| CNC(=O)c1cc(Cl)cc(C)c1NC(=O)c1cc(Cn2nnc3cc(Cl)ccc32)nn1-c1ncccc1Cl [Example 68] | 100 | 2.9 |  |
| CNC(=O)c1cc(Cl)cc(C)c1NC(=O)c1cc(Cn2nnc3cc(C)ccc32)nn1-c1ncccc1Cl [Example 69] | 100 | 2.63 |  |

| Structure (SMILES) | pest or weed control at 100 g/ha ([1]; 100 g/ha, after 7 days) [%] | chromatographic logP [2] | other results |
| --- | --- | --- | --- |
| CNC(=O)c1cc(Cl)cc(C)c1NC(=O)c1cc(Cn2nc3ccc(C)cc3n2)nn1-c1ncccc1Cl [Example 73] |  | 3.05 |  |
| CNC(=O)c1cc(Cl)cc(C)c1NC(=O)c1cc(Cn2nnc3cc(Cl)c(Cl)cc32)nn1-c1ncccc1Cl [Example 76] |  | 3.33 |  |
| CNC(=O)c1cc(Cl)cc(C)c1NC(=O)c1cc(Cn2nnc3ccc(F)cc32)nn1-c1ncccc1Cl [Example 78] | 100 | 2.57 |  |
| CNC(=O)c1cc(C#N)cc(C)c1NC(=O)c1cc(Cn2nnc3cc(Cl)c(Cl)cc32)nn1-c1ncccc1Cl [Example 80] | 100 | 2.96 |  |
| CNC(=O)c1cc(C#N)cc(C)c1NC(=O)c1cc(Cn2nnc3ccc(F)cc32)nn1-c1ncccc1Cl [Example 82] | 100 | 2.24 |  |
| CNC(=O)c1cc(C#N)cc(C)c1NC(=O)c1cc(Cn2nc3ccc(F)cc3n2)nn1-c1ncccc1Cl [Example 83] | 100 | 2.55 |  |
| CNC(=O)c1cc(Cl)cc(C)c1NC(=O)c1cc(Cn2nnc3c(Cl)c(Cl)c(Cl)c(Cl)c32)nn1-c1ncccc1Cl [Example 84] | 100 | 4.19 |  |
| CNC(=O)c1cc(Cl)cc(C)c1NC(=O)c1cc(Cn2nc3c(Cl)c(Cl)c(Cl)c(Cl)c3n2)nn1-c1ncccc1Cl [Example 85] |  | 4.66 |  |
| CNC(=O)c1cc(C#N)cc(C)c1NC(=O)c1cc(Cn2nc3c(Cl)c(Cl)c(Cl)c(Cl)c3n2)nn1-c1ncccc1Cl [Example 93] |  | 4.24 |  |
| CNC(=O)c1cc(C#N)cc(C)c1NC(=O)c1cc(Cn2nnc3cc([N+](=O)[O-])ccc32)nn1-c1ncccc1Cl [Example 103] | 100 | 2.34 |  |
| Cc1cc(C#N)cc(C(=O)NC(C)(C)C)c1NC(=O)c1cc(Cn2nnc3c(Cl)c(Cl)c(Cl)c(Cl)c32)nn1-c1ncccc1Cl [Example 104] |  | 4.64 |  |
| Cc1cc(C#N)cc(C(=O)NC(C)(C)C)c1NC(=O)c1cc(Cn2nc3c(Cl)c(Cl)c(Cl)c(Cl)c3n2)nn1-c1ncccc1Cl [Example 105] |  | 5.13 |  |
| Cc1cc(C#N)cc(C(=O)NC(C)(C)C)c1NC(=O)c1cc(Cn2nnc3cc(Br)ccc32)nn1-c1ncccc1Cl [Example 106] | 100 | 3.31 |  |
| Cc1cc(C#N)cc(C(=O)NC(C)(C)C)c1NC(=O)c1cc(Cn2nnc3cc([N+](=O)[O-])ccc32)nn1-c1ncccc1Cl [Example 115] | 100 | 3.03 |  |
| Cc1cc(Cl)cc(C(=O)NC(C)C)c1NC(=O)c1cc(Cn2ccnn2)nn1-c1ncccc1Cl [Example 116] |  | 2.12 |  |
| Cc1cc(F)cc(C(=O)NC(C)(C)C)c1NC(=O)c1cc(Cn2ncc(C(F)(F)F)n2)nn1-c1ncccc1Cl [Example 171] | 100 | 4.02 |  |
| Cc1cc(Br)cc(C(=O)NC(C)C2CC2)c1NC(=O)c1cc(Cn2ncc(C(F)(F)F)n2)nn1-c1ncccc1Cl (centres unmarked) [Example 173] |  | 3.87 |  |
| Cc1cc(C#N)cc(C(=O)NC2CC2)c1NC(=O)c1cc(Cn2cc(C(F)(F)F)nn2)nn1-c1ncccc1Cl [Example 179] |  | 2.5 |  |
| Cc1cc(Cl)cc(C(=O)NC2CC2)c1NC(=O)c1cc(Cn2cc(C(F)(F)F)nn2)nn1-c1ncccc1Cl [Example 188] |  | 2.82 |  |
| Cc1cc(Cl)cc(C(=O)NC(C)(C)C)c1NC(=O)c1cc(Cn2cc(C(F)(F)F)nn2)nn1-c1ncccc1Cl [Example 191] | 100 | 3.44 |  |
| O=C(NC1CC1)c1cc(Cl)cc(Cl)c1NC(=O)c1cc(Cn2cc(C(F)(F)F)nn2)nn1-c1ncccc1Cl [Example 199] | 100 | 2.89 |  |
| CC(C)NC(=O)c1cc(Cl)cc(Cl)c1NC(=O)c1cc(Cn2cc(C(F)(F)F)nn2)nn1-c1ncccc1Cl [Example 200] | 100 | 3.1 |  |
| Cc1cc(C#N)cc(C(=O)NC(C)(C)C)c1NC(=O)c1cc(Cn2cc(C(F)(F)F)nn2)nn1-c1ccccc1Cl [Example 292] | 100 |  | chromatographic logP [2, 4]: 3.48 |
| CCNC(=O)c1cc(C#N)cc(C)c1NC(=O)c1cc(Cn2cc(C(F)(F)C(F)(F)C(F)(F)F)nn2)nn1-c1ncccc1Cl [Example 330] |  |  | chromatographic logP [2, 5]: 3.24 |
| Cc1cc(Cl)cc(C(=O)NC(C)(C)C)c1NC(=O)c1cc(Cn2ncc(C(F)(F)C(F)(F)C(F)(F)F)n2)nn1-c1ncccc1Cl [Example 374] |  |  | pest or weed control at 100 g/ha [1]: 100%; chromatographic logP [2, 5]: 4.65 |
